Measured values from US9120749B2, “Quinoline derivatives and MELK inhibitors containing the same” (ONCOTHERAPY SCIENCE, INC., priority 2010, dated 2015).
Where a name gives a salt, the structure may show the parent alone. Read-outs that look alike come from different tables or passages of the source.

How the values were obtained:
DU4475 cells = test: Cell-based assay: anti-proliferative activity, Cell Counting Kit-8, 72 hours (DU4475)
A549 cells = test: Cell-based assay: anti-proliferative activity, Cell Counting Kit-8, 72 hours (A549); conditions: 72 hours
Method in brief: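 Cell Counting Kit-8 read-out of A549 growth after 72 hours of inhibitor exposure, cells plated in 96-well format. Values reported as IC50.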

T47D cells = test: Cell-based assay: anti-proliferative activity, Cell Counting Kit-8, 72 hours (T47D)
Method in brief: (§1)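 Cellular growth is read by CCK-8 colorimetric kit 72 h after inhibitor addition to seeded cells, and IC50 values are derived from the resulting data; MELK protein levels in these lines are checked beforehand by immunoblotting whole crude lysate.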

MELK = MELK (Homo sapiens, UniProt Q14680); test: Kinase assay: MELK activity, phosphorylation of FITC-labeled histone H3 peptide measured by IMAP fluorescence polarization; format: biochemical; conditions: MELK kinase assay, IMAP fluorescence polarization, 50 micro-M ATP; read-out: IC50 (μM) (kinase assay)
Chain of MELK (Q14680 whole entry, looked up): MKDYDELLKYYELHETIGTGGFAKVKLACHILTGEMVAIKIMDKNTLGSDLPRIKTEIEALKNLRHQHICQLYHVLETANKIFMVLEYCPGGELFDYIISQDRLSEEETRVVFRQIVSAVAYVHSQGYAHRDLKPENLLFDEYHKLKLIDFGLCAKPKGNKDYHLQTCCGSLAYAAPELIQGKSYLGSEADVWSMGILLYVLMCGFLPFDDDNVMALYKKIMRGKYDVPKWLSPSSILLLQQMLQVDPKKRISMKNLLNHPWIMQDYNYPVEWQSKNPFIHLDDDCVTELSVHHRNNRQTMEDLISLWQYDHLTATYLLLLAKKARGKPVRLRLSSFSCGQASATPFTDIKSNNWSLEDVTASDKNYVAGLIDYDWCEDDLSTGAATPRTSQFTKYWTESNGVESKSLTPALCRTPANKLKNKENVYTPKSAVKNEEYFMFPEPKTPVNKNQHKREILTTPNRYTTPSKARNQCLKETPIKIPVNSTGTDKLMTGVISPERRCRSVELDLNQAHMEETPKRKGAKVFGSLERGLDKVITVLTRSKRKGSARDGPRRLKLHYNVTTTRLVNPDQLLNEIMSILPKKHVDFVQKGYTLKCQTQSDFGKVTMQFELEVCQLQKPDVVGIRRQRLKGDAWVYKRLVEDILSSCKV
Method in brief: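 FP readout: FITC-histone H3 peptide phosphorylation, read 0.5 h (RT) after stopping with 3x volume of IMAP progressive binding solution. Final DMSO 1%.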

HT-1197 cells = test: Cell-based assay: anti-proliferative activity, Cell Counting Kit-8, 72 hours (HT-1197, negative control without MELK expression); conditions: HT1197 cells (negative control), 72 hours
Method in brief: as §1

22Rv1 cells = test: Cell-based assay: anti-proliferative activity, Cell Counting Kit-8, 72 hours (22Rv1)

SMILES	IC50 (DU4475 cells; Homo sapiens, DU-4475) [µM]	IC50 (A549 cells; Homo sapiens, A549, 72 h) [µM]	IC50 (T47D cells; Homo sapiens, T47D, 72 h) [µM]	IC50 (MELK) [µM]	IC50 (HT-1197 cells; Homo sapiens, HT1197, 72 h) [µM]	IC50 (22Rv1 cells; Homo sapiens) [µM]	IC50 (DU4475 cells) [µM]	IC50 (A549 cells) [µM]	IC50 (T47D cells; 72 hours) [µM]	IC50 (HT-1197 cells) [µM]	IC50 (22Rv1 cells) [µM]
CS(=O)(=O)c1cnc2ccc(-c3cc(F)c(O)c(Cl)c3)cc2c1N[C@H]1CC[C@H](CN2CCCC2)CC1 [Example 891, 2-chloro-6-fluoro-4-(3-(methylsulfonyl)-4-((1R,4R)-4-(pyrrolidin-1-ylmethyl)cyclohexyl)amino)quinolin-6-yl)phenol hydrochloride]	0.46	1.3	0.73	0.0095	2.4	0.92					
CN(C)CCOc1ccc(Nc2c(S(C)(=O)=O)cnc3ccc(-c4cc(F)c(O)c(Cl)c4)cc23)cn1 [Example 885, 2-chloro-4-(4-((6-(2-(dimethylamino)ethoxy)pyridin-3-yl)amino)-3-(methylsulfonyl)quinolin-6-yl)-6-fluorophenol hydrochloride]	0.62	3	0.7	0.0083	10	2.5					
CC(=O)c1cnc2ccc(-c3cc(Cl)c(O)c(Cl)c3)cc2c1N[C@H]1CC[C@H](NC(=O)CN(C)C)CC1 [Example 877, N-(1R,4R)-4-((3-acetyl-6-(3,5-dichloro-4-hydroxyphenyl)quinolin-4-yl)amino)cyclohexyl)-2-(dimethylamino)acetamide hydrochloride]	0.11	0.2	0.11	0.0027	2	0.18					
COc1cc(-c2cc3c(N[C@H]4CC[C@H](CN5CCCC5)CC4)c(C(C)=O)cnc3cc2F)cc(Cl)c1O [Example 926, 1-(6-(3-chloro-4-hydroxy-5-methoxy-phenyl)-7-fluoro-4-((1R,4R)-4-(pyrrolidin-1-ylmethyl)cyclohexyl)amino)quinolin-3-yl)ethanone hydrochloride]	0.55	0.61	2.7	0.0079	5	0.69					
CCN(CC)CCO[C@H]1CC[C@H](Nc2c(C(C)=O)cnc3ccc(-c4cc(F)c(O)c(Cl)c4)cc23)CC1 [Example 869, 1-(6-(3-chloro-5-fluoro-4-hydroxyphenyl)-4-((1R,4R)-4-(2-(diethylamino)ethoxy)cyclohexyl)amino)quinolin-3-yl)ethanone hydrochloride]	0.26	0.23	0.084	0.01	0.7	0.32					
CC(=O)c1cnc2ccc(-c3ccc(O)cc3)cc2c1N[C@H]1CC[C@H](CN(C)C)CC1 [Example 935, 1-(4-(1R,4R)-4-((dimethylamino)methyl)cyclohexylamino)-6-(4-hydroxyphenyl)quinolin-3-yl) ethanone dihydrochloride]	1.5	0.86	1.6	0.08	4.3	0.53					
CC(=O)c1cnc2ccc(-c3cc(F)c(O)c(Cl)c3)cc2c1N[C@H]1CC[C@H](NC(=O)CN(C)C)CC1 [Example 876]	0.092	0.16	0.033	0.0088	1.5	0.14					
CN1CCC(n2cc(Nc3c(S(C)(=O)=O)cnc4ccc(-c5cc(Cl)c(O)c(Cl)c5)cc34)cn2)CC1 [Example 899, 2,6-dichloro-4-(4-((1-(1-methyl-piperidin-4-yl)-1H-pyrazol-4-yl)amino)-3-(methylsulfonyl)quinolin-6-yl)phenol hydrochloride]	0.26	4	1.6	0.0017	10	1.5					
CC(=O)c1cnc2ccc(-c3cc(Cl)c(O)c(Cl)c3)cc2c1N[C@H]1CC[C@H](C(=O)NCCN(C)C)CC1 [Example 892, (1r,4r)-4-((3-acetyl-6-(3,5-dichloro-4-hydroxyphenyl)quinolin-4-yl)amino)-N-(2-(dimethylamino)ethyl)cyclo-hexanecarboxamide hydrochloride]	0.4	6.3	0.59	0.0023	100	1.1					
CC(=O)c1cnc2cc(F)c(-c3cc(F)c(O)c(Cl)c3)cc2c1N[C@H]1CC[C@H](CN(C)C)CC1 [Example 904, 1-(6-(3-chloro-5-fluoro-4-hydroxy-phenyl)-4-((1R,4R)-4-((dimethylamino)methyl)cyclohexyl)amino)-7-fluoro-quinolin-3-yl)ethanone hydrochloride]	0.26	0.43	0.51	0.017	1.6	0.33					
COc1cc(-c2ccc3ncc(C(=O)C4CCCC4)c(N[C@H]4CC[C@H](CN(C)C)CC4)c3c2)cc(Cl)c1O [Example 916, (6-(3-chloro-4-hydroxy-5-methoxy-phenyl)-4-((1R,4R)-4-((dimethyl-amino)methyl)cyclohexyl)amino) quinolin-3-yl)(cyclopentyl) methanone hydrochloride]	1	1.1	1.2	0.0048	3.1	1.5					
CCC(=O)c1cnc2ccc(-c3cc(Cl)c(O)c(Cl)c3)cc2c1Nc1ccc(N2CCC(N(C)C)C2)nc1 (stereo not drawn) [Example 863, 1-(6-(3,5-dichloro-4-hydroxyphenyl)-4-((6-(3-(dimethylamino)pyrrolidin-1-yl)pyridin-3-yl)amino)quinolin-3-yl)propan-1-one]	0.31	0.5	0.44	0.0039	14	0.59					
CC(=O)c1cnc2ccc(-c3cc(Cl)c(O)c(Cl)c3)cc2c1N[C@H]1CC[C@H](NC(=O)[C@H](C)N)CC1 [Example 886]	0.016	0.64	0.045	0.00066	11	0.088					
CC(=O)c1cnc2ccc(-c3cc(F)c(O)c(Cl)c3)cc2c1Nc1cncc(CCN2CCCC2)c1 [Example 880, 1-(6-(3-chloro-5-fluoro-4-hydroxyphenyl)-4-((5-(2-(pyrrolidin-1-yl)ethyl)pyridin-3-yl)amino)quinolin-3-yl)ethanone hydrochloride]	0.96	1.8	3.1	0.04	46	7.4					
CC(=O)c1cnc2ccc(-c3cc(F)c(O)c(Cl)c3)cc2c1N[C@H]1CC[C@H](C(=O)N(C)C)CC1 [Example 870, (1r,4r)-4-((3-acetyl-6-(3-chloro-5-fluoro-4-hydroxyphenyl)quinolin-4-yl)amino)-N,N-dimethylcyclohexanecarboxamide hydrochloride]				0.035			2.1	1.6	0.53	3.5	2.3
CC(=O)c1cnc2ccc(-c3cc(F)c(O)c(Cl)c3)cc2c1Nc1cnc(C)c(CCN2CCCC2)c1 [Example 867, 1-(6-(3-chloro-5-fluoro-4-hydroxyphenyl)-4-((6-methyl-5-(2-(pyrrolidin-1-yl)ethyl)pyridin-3-yl)amino)quinolin-3-yl)ethanone]	1.3	1.6	2.9	0.014	53	4.6					
CC(=O)c1cnc2ccc(-c3ccc4nc[nH]c4c3)cc2c1Nc1cnn(C2CCN(C)CC2)c1 [Example 895, 1-(6-(1H-benzo[d]imidazol-6-yl)-4-((1-(1-methylpiperidin-4-yl)-1H-pyrazol-4-yl)amino)quinolin-3-yl)ethanone hydrochloride]	9.1	4	0.94	0.065	9.3	2.2					
COc1cc(-c2ccc3ncc(C(=O)C4CCCC4)c(Nc4cccc(CCN5CCCC5)c4)c3c2)cc(Cl)c1O [Example 924, (6-(3-chloro-4-hydroxy-5-methoxy-phenyl)-4-((3-(2-(pyrrolidin-1-yl)ethyl)phenyl)amino)quinolin-3-yl) (cyclopentyl)methanone hydrochloride]	1.8	3.7	3.2	0.018	3.3	3					
CCC(=O)c1cnc2ccc(-c3cc(Cl)c(O)c(Cl)c3)cc2c1Nc1ccc(N2CCC[C@H](N)C2)nc1 [Example 934, (S)-1-(4-(6-(3-aminopiperidin-1-yl)pyridin-3-ylamino)-6-(3,5-dichloro-4-hydroxyphenyl)quinolin-3-yl)propan-1-one]	0.016	0.034	0.014	0.0012	0.6	0.02					
O=C(c1cnc2ccc(-c3cc(F)c(O)c(Cl)c3)cc2c1Nc1cncc(CCN2CCCC2)c1)C1CC1 [Example 882, (6-(3-chloro-5-fluoro-4-hydroxyphenyl)-4-((5-(2-(pyrrolidin-1-yl)ethyl)pyridin-3-yl)amino)quinolin-3-yl)(cyclopropyl)methanone]	0.15	0.27	100	0.019	100	3.1					
